Where two headings read alike, the source gives them in different places.
How the values were obtained:
Human BACE1 = biological target: T1, Human BACE1 (Homo sapiens, UniProt P56817); experiment: Diluted TR-FRET assay; assay type: biochemical; settings: 50 times less enzyme, 6.5 h reaction time at r.t.; read-out: IC50 BACE1 (dil. TR-FRET)
T1 construct: the soluble part of the human β-Secretase1 (AA1-AA460) was cloned using the BACE1(1-460)-(AVT)-Fc-pGEN-IRES-neo mammalian expression vector; AVT linker (C); made in house
T1 sequence (P56817 22-460): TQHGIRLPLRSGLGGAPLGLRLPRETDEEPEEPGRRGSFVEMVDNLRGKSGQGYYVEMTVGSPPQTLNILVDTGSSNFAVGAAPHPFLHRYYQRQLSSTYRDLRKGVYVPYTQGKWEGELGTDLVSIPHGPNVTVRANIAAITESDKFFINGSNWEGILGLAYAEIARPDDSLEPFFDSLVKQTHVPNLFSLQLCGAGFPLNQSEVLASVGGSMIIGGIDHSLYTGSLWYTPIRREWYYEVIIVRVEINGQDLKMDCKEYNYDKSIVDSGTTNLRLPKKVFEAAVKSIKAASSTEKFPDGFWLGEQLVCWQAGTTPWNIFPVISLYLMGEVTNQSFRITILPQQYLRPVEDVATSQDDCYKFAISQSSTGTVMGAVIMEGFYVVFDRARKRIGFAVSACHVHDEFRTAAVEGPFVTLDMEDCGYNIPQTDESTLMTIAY
In short: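 Human BACE1 (residues 1-460) was fused to an IgG1 Fc affinity tag and stably expressed in HEK 293 cells. Using a Multidrop Combi, 7 μL enzyme was added to 0.8 μL compound in dimethylsulphoxide and incubated 10 minutes. Reactions were stopped with 5.5 μL NaOAC Stop solution (pH 9), and TR-FRET fluorescence was read on a Pherastar HTRF module.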

Human BACE2 = biological target: T2, Human BACE2 (Homo sapiens, UniProt Q9Y5Z0); experiment: TR-FRET assay; assay type: biochemical; settings: substrate 100 nM, pH4.5
T2 construct: the soluble part of the human β-Secretase2 (AA1-AA473) was cloned using BACE2(1-473)-(AVT)-Fc-pDEST12.2 mammalian expression vector; AVT linker (C); made in house
T2 sequence (Q9Y5Z0 21-473): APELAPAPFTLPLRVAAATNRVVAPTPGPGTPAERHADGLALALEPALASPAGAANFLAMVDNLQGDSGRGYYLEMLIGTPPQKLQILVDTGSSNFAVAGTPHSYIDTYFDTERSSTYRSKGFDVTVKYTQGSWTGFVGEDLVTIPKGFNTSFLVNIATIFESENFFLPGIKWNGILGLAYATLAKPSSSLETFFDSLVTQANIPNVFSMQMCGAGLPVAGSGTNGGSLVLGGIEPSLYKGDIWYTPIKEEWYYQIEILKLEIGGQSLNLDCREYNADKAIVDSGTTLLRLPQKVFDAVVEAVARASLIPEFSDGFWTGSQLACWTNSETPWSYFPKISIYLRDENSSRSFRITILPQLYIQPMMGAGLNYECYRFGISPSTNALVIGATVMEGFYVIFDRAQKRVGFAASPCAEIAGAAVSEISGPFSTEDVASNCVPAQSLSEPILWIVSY

SH-SY5Y cells = experiment: sAPPβ release assay
[1] = Homo sapiens, SH-SY5Y, read-out: IC50 Cell (sAPPβ release, nM), SH-SY5Y cells, compounds incubated 16-17 h
[2] = read-out: IC50 Cell (sAPPβ release), SH-SY5Y cells, compounds incubated 16-17 h

Compound	IC50 (Human BACE2; enzyme 2.7 μg/mL) [nM]	IC50 (SH-SY5Y cells; [1]) [nM]	IC50 (Human BACE1) [nM]	IC50 (Human BACE2; enzyme […]) [nM]	IC50 (SH-SY5Y cells; [2]) [nM]
[2H]C1([2H])OC(N)=N[C@]12c1cc(C#N)ccc1C[C@@]21CC[C@H](OC)[C@@H](C)C1 [Compound 120, {(1S,1′R,3S,4S)-6′-cyano-4-methoxy-3-methyl-3′H,5″H-dispiro[cyclohexane-1,2′-indene-1′,4″-oxazol]-5″,5″-d2-2″-amine}]	1630	7	191	–	–
(1r,3R,4r,5S)-4-methoxy-3,5-dimethyl-6′-(5-(trifluoromethyl)pyridin-3-yl)-3′H,5″H-dispiro[cyclohexane-1,2′-indene-1′,4″-oxazol]-2″-amine [Compound 30]	–	–	169	344	11.3
(1′R,4′S)-4′-methoxy-6″-(pyridin-3-yl)-3″H,5′″H-trispiro[cyclopropane-1,3′-cyclohexane-1′,2″-indene-1″,4′″-oxazol]-5′″,5′″-d2-2′″-amine and (1′S,4′R)-4′-methoxy-6″-(pyridin-3-yl)-3″H,5′″H-trispiro[cyclopropane-1,3′-cyclohexane-1′,2″-indene-1″,4′″-oxazol]-5′″,5′″-d2-2′″-amine [Compound 87]	–	–	262	3480	4.7
(1′R,4′S)-4′-methoxy-6″-(pyrimidin-5-yl)-3″H,5′″H-trispiro[cyclopropane-1,3′-cyclohexane-1′,2″-indene-1″,4′″-oxazol]-5′″,5′″-d2-2′″-amine and (1′S,4′R)-4′-methoxy-6″-(pyrimidin-5-yl)-3″H,5′″H-trispiro[cyclopropane-1,3′-cyclohexane-1′,2″-indene-1″,4′″-oxazol]-5′″,5′″-d2-2′″-amine [Compound 86]	–	–	144	4750	5.9

The next lines start with results.

IC50 (Human BACE2; enzyme 2.7 μg/mL) [nM]	IC50 (SH-SY5Y cells; [1]) [nM]	Compound	IC50 (Human BACE1) [nM]	IC50 (Human BACE2; enzyme […]) [nM]	IC50 (SH-SY5Y cells; [2]) [nM]
> 5000	26	[2H]C1([2H])OC(N)=N[C@]12c1cc(-c3cncnc3C)ccc1C[C@]21CC[C@@H](OC)CC1 [Compound 116, {(1r,1′R,4R)-4-methoxy-6′-(4-methylpyrimidin-5-yl)-3′H,5″H-dispiro[cyclohexane-1,2′-indene-1′,4″-oxazol]-5″,5″-d2-2″-amine}]	1130	–	–
1090	13	[2H]C1([2H])OC(N)=N[C@]12c1cc(C#N)ccc1C[C@]21CC[C@@H](OC)[C@H](C)C1 [Compound 119, {(1R,1′R,3R,4R)-6′-cyano-4-methoxy-3-methyl-3′H,5″H-dispiro[cyclohexane-1,2′-indene-1′,4″-oxazol]-5″,5″-d2-2″-amine}]	294	–	–

Reference: patent publication US10053453B2, “Compounds and their use as BACE inhibitors” (AstraZeneca AB, priority 2014, dated 2018)
